In publication PMC3914206:

Assays:
panel of 442 kinases [1] = target: T1, panel of 442 kinases (Homo sapiens, UniProt P30530); type: binding; conditions: Compound Concentration 10 µM
T1 construct: purchased KINOMEscan
T1 sequence (P30530 26-894): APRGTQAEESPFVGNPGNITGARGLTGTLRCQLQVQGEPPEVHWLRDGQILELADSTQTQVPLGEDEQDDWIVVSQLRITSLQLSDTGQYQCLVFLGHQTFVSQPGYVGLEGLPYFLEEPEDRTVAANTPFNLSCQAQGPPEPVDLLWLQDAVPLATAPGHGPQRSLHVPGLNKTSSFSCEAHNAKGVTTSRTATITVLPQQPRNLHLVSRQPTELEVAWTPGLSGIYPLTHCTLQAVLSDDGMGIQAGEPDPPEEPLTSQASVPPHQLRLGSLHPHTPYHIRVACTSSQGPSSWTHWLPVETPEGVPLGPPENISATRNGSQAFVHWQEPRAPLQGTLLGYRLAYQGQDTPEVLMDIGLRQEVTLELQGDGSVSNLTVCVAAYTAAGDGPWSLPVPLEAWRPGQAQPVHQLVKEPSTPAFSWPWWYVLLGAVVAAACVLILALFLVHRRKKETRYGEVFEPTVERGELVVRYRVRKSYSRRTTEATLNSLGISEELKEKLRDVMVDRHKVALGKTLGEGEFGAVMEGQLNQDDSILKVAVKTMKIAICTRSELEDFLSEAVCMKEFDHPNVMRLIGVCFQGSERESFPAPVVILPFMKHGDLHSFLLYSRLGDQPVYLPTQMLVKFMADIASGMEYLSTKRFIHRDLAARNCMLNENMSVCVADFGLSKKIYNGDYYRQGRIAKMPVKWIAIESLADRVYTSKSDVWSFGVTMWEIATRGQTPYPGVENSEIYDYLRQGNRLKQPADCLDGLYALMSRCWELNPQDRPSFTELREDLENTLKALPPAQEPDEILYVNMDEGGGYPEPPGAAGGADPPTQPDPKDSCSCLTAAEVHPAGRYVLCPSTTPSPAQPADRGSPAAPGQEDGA
Description: (§1) We assessed the selectivity of members of this scaffold using the KINOMEscan methodology across a near comprehensive panel of 442 kinases [[18,27]].

panel of 442 kinases [2] = target: T2, panel of 442 kinases (Homo sapiens, UniProt P45984); type: binding; conditions: Compound Concentration 10 µM
T2 construct: purchased KINOMEscan
T2 sequence (P45984 whole entry): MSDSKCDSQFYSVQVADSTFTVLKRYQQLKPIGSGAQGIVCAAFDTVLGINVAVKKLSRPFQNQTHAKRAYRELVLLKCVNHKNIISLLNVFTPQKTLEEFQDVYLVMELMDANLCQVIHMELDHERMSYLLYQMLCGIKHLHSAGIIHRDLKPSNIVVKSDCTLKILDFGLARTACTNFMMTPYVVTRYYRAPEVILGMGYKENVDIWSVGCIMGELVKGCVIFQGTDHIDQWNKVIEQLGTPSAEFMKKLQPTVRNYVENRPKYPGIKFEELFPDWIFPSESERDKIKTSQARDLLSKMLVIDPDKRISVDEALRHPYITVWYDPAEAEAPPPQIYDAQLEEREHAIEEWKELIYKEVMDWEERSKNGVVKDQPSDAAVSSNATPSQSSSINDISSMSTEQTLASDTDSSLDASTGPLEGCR
Description: as §1

COc1cc(C(=O)N2CCC(N3CCN(C)CC3)CC2)ccc1Nc1ncc2c(n1)N(C)c1ccccc1C(=O)N2C [15 (LRRK2-IN-1)]
KINOMEscan: AXL (panel of 442 kinases [1]): 100
KINOMEscan: JNK2 (panel of 442 kinases [2]): 94

CCOc1cc(C(=O)N2CCC(N3CCN(C)CC3)CC2)ccc1Nc1ncc2c(n1)N(C1CCCC1)c1ccccc1C(=O)N2C [Compound 26]
KINOMEscan: AXL (panel of 442 kinases [1]): 93
KINOMEscan: JNK2 (panel of 442 kinases [2]): 63

COc1cc(C(=O)N2CCC(N3CCN(C)CC3)CC2)ccc1Nc1ncc2c(n1)N1CCc3cccc(c31)C(=O)N2C [Compound 24]
KINOMEscan: JNK2 (panel of 442 kinases [2]): 42

COc1cc(C(=O)N2CCC(N3CCN(C)CC3)CC2)ccc1Nc1ncc2c(n1)N(C1CCCC1)c1ccccc1C(=O)N2C [Compound 25, 11-cyclopentyl-2-((2-methoxy-4-(4-(4-methylpiperazin-1-yl)piperidine-1-carbonyl)phenyl)amino)-5-methyl-5H-benzo[e]pyrimido[5,4-b][1,4]diazepin-6(11H)-one]
KINOMEscan: AXL (panel of 442 kinases [1]): 100
KINOMEscan: JNK2 (panel of 442 kinases [2]): 44
